Assay results: patent publication US20240148701A1, “WOULD HEALING METHODS” (The University of Sydney, priority 2021, published 2024)
“Also recorded” adds a separate entry of the source.

Key:
[1] = target: β3-AR (Homo sapiens, UniProt P13945); details: cited from earlier work; for agonist activity at β3-AR: β1- and β2-AR antagonists; for affinity and potency at β3-AR: selective agonists
[2] = tested on: HUVECs; assay: Cell migration by scratch assay in HUVECs (CL 316,243); type: cell-based, human; details: L-NAME 300 μmol/L with CL 316,243
[3] = tested on: HUVECs; assay: Tubule formation in HUVECs on reduced growth factor extracellular matrix; type: cell-based, human; details: L-NAME 300 μmol/L with CL 316,243
Procedure: (§1) Human umbilical vein endothelial cells (HUVECs; Lonza C2519AS, pooled source, Australia) were grown using standard cell culture conditions in endothelial cell growth medium (EGM Plus®, containing 2% fetal bovine serum, Lonza, Australia). All cells were regularly confirmed to be mycoplasma negative. Two different pooled source cell lines were used in experiments and all were used within passages 2-4. Human adult dermal microvascular endothelial cells were also obtained from Lonza (CC-2543, Lonza Australia) and cultured as above but using endothelial growth medium 2-MV bulletkit. Endothelial colony forming cells (ECFCs) were derived from the peripheral blood of participants in the BioHEART study. This registered study (ACTRN12618001322224) complies with the Declaration of Helsinki and the study protocol and design has been approved by the Northern Sydney Local Health District Human Research Ethics Committee (HREC/17/HAWKE/343). […]
(§2) Once they were ˜70% confluent, cells were re-suspended in diluted EGM Plus® (1:3) and plated on reduced-growth factor extracellular matrix (15 mg/ml, Cultrex, Trevigen, USA) at a density of 1.5×10^4 cells/cm^2. […] Cells were incubated in an EVOS FL Auto Imaging system for 16 hours and tubule formation recorded every hour. Optimal tube formation occurred at the 8-hour timepoint; tubule number at this point was quantified manually using NIH Image J software. […]

[4] = Topical lipogel on explanted skin, DESI-Mass spec detection; type: in vitro ADME, mouse; details: lipogel applied to freshly explanted skin for 5.5 hrs
Description: A lipogel comprising the β3AR agonist Mirabegron was applied to freshly explanted skin for 5.5 hrs. Skin was then snap frozen in liquid nitrogen and cryosectioned at 40 μum thickness.
DESI-Mass spec was then used to scan the tissue at 30 μm resolution. Tissue image was constructed using mass signal 284 which was presented in high quantity throughout the tissue. Mirabegron was detected using mass signal 397 and overlayed onto the tissue image. The same slide used for DESI-Mass spec was subsequently stained with H&E.

[5] = tested on: HUVECs; assay: Scratch migration assay in HUVECs with Mirabegron; type: cell-based, human; details: 0.85-850 nM, over 15 hours, between concentrations
Procedure: (§3) For assessing the effect of Mirabegron on cell migration: Human umbilical vein endothelial cells (HUVECs; Lonza, C2519AS) were cultured in Endothelial Cell Growth Media containing 2% fetal bovine serum (EGM2) (Lonza, CC-3162) at standard conditions of 37° C. and 5% C02 (SC). Human dermal microvascular diabetic and non-diabetic endothelial cells (db-HMVECs and HMVECs: Lonza, CC2930 and CC2543 respectively) were cultured in Microvascular Endothelial Growth Media containing 2% fetal bovine serum (FBS) (EGM-2MV) (Lonza, CC-3202) at ST. Cells were between passage 4 and 7 when used.
To first investigate whether the role that β3AR activation plays in endothelial cell migration was dose dependant, the inventors measured migration of HUVECs in media with multiple concentrations of Mirabegron (0.85, 8.5, 85 & 850 nM) using a scratch migration assay.

[6] = tested on: diabetic HMVECs; assay: Scratch migration assay in diabetic HMVECs with Mirabegron; type: cell-based, human; details: 85 nM, 4.5 hours, vs control
Procedure: as §3
To investigate the potential for Mirabegron to improve migration by reversing oxidative stress, diabetic and non-diabetic HMVECs were used in a scratch migration assay. 85 nM of Mirabegron was used with a control on both cell types.

[7] = tested on: C57BL6 mice; assay: Splinted wound healing model in STZ-diabetic male mice; type: in vivo, mouse
Procedure: 8-week-old C57BL6 mice were purchased from Animal Resources Centre (Murdoch, WA) and acclimatised to the Kearns Facility over a 1-week period. Mice were group housed (5/cage) within a Physical Containment Level 2 laboratory and were allowed food and water ad libitum. After acclimatisation, 60 mice were weighed daily and given five consecutive daily intraperitoneal injections of Streptozotocin (STZ) solution (55 mg/kg/day) dissolved in sodium citrate (0.1 M) using a standard insulin needle (30 gauge). After the final injection, mice were weighed and blood glucose level (BGL) measured weekly by pricking the most distal point on the tail with a needle to obtain a blood drop, used with an AccuCheck BGL monitor. Mice became become diabetic over 4 weeks post-STZ, as confirmed with a consistent BGL of 15 mmol/L and if greater than 10% weight loss was observed, insulin was delivered via intraperitoneal injection (1 IU in saline). 4 mice were excluded due to severe weight loss during diabetes induction that exceeded ethical protocols. […] Wounds were measured daily for 12 days by removing opsite covering and using digital callipers to measure wound diameter across 3 axes which were averaged and used to calculate circular wound area. […] As such, wound data from 2 mice in topical group were not recorded following day 8 due to splint detachment. […]

[8] = tested on: human adult dermal microvascular endothelial cells (MVEC); assay: Tubule formation in human adult dermal microvascular endothelial cells; type: cell-based; details: β3AR antagonist 1 μmol/L with CL 316,243 100 ng/ml
Procedure: as §1, §2

β3-AR, sequence (P13945 whole entry): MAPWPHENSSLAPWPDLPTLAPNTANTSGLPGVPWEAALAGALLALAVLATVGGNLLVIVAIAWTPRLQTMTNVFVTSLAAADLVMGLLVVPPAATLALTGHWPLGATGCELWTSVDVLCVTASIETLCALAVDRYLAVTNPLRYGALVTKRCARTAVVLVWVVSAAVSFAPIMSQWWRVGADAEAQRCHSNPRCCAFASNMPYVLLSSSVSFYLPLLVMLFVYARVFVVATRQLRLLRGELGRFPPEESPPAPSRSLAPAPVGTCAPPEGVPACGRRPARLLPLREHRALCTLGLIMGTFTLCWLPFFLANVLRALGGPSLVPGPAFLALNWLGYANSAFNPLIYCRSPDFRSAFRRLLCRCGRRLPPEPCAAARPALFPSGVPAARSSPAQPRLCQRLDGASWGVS

CC(C)(C)NCC(O)COc1cccc2[nH]c(=O)[nH]c12 (stereo not shown) [CGP12177A]
agonist activity at β3-AR [1]: partial agonist activity

COC(=O)[C@@H](N)CCCNC(=N)N[N+](=O)[O-] [L-NAME, Nω-nitro-L-arginine methyl ester]
effect on β3AR-stimulated cell migration rate in HUVECs [2]: abolished | effect on β3AR-stimulated tubule formation in HUVECs [3]: abolished

Nc1nc(CC(=O)Nc2ccc(CCNC[C@H](O)c3ccccc3)cc2)cs1 [Mirabegron, 2-(2-Amino-1,3-thiazol-4-yl)-N-[4-(2-{[(2R)-2-hydroxy-2-phenylethyl]amino}ethyl)phenyl]acetamide]
absorption into skin tissue (DESI-Mass spec signal 397) [4]: detected in the tissue; also recorded: deliver through to the dermis | migration of HUVECs [5]: No significant difference; also recorded: no impact | migration of diabetic HMVECs [6]: improved the migration; also recorded: seemed to improve the migration; also recorded: improves migration | wound healing (wound closure over time) ([7]; topical lipogel daily, 12 days, vs vehicle lipogel, p=0.009): Significant improvement | wound healing at day 2 ([7]; topical, day 2, n=14, p=0.0238): significant improvement | affinity and potency at β3-AR [1]: high affinity and potency

CCc1ccccc1OC[C@@H](O)CN[C@H]1CCCc2ccccc21.O=C(O)C(=O)O [SR 592230A]
effect on CL 316,243-induced tubule formation [8]: abolished

CC(C)(Cc1c[nH]c2ccccc12)NCC(O)COc1ccccc1C#N (stereo not shown) [bucindolol]
agonist activity at β3-AR [1]: partial agonist activity

CC(C)(C)NCC(O)COc1cccc2c1CC(O)C(O)C2 (stereo not shown) [nadolol]
affinity at β3-AR ([1]; β-AR antagonists): atypically low affinity

CC(C)NCC(O)COc1cccc2[nH]ccc12 (stereo not shown) [pindolol]
agonist activity at β3-AR [1]: partial agonist activity

Cc1cc(OCC(=O)O)c(C)cc1CCN[C@@H](C)[C@H](O)c1ccc(O)cc1 [ritobegron]
affinity and potency at β3-AR [1]: high affinity and potency

O=C(O)c1cccc(-c2cccc(NCCNC[C@H](O)c3cccc(Cl)c3)c2)c1 [solabegron]
affinity and potency at β3-AR [1]: high affinity and potency

O=C(Nc1ccc(C[C@@H]2CC[C@H]([C@H](O)c3ccccc3)N2)cc1)[C@@H]1CCc2nccc(=O)n21 [vibegron]
affinity and potency at β3-AR [1]: high affinity and potency
